Assays:
Assay type in all cases: in vitro ADME
OATP1B3 = target: T1, OATP1B3 (Homo sapiens, UniProt Q9NPD5); experiment: OATP1B3 uptake transporter substrate assay; design: expressed in transfected cells; conditions: OATP1B3-expressing vs control cell
T1 sequence (Q9NPD5 1-702): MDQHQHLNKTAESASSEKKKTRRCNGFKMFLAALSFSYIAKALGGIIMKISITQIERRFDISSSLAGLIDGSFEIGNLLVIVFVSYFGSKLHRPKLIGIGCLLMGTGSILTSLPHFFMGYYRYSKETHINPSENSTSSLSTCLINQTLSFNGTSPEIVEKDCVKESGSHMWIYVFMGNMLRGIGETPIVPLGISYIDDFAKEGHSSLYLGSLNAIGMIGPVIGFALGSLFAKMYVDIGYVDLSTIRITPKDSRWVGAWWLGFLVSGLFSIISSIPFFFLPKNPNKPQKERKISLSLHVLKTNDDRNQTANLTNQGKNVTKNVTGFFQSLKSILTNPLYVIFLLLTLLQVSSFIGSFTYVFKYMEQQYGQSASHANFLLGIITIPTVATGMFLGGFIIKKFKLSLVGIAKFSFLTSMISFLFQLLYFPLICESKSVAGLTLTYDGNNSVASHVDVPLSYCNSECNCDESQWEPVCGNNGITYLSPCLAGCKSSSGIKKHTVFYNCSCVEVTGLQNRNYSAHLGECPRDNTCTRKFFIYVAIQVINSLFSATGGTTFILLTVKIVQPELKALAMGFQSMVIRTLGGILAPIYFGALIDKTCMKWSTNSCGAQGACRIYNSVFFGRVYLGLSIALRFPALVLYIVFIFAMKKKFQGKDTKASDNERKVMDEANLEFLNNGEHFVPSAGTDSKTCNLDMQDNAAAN
Description: (§1) The potential of Compound A to act as an efflux transporter Pgp and BCRP as well as uptake transporter OATP1B1 and 1B3 were assessed in Caco-2 and single transporter over-expressed HEK29 cells, respectively.
(§2) The potential of Compound A to act as a substrate for Pgp and BCRP was examined in Caco-2 cells at the concentrations of 0.075, 0.75, 3.75 and 7.5 μM containing 1% of BSA. After 120 min incubation, the bidirectional permeability of Compound A was determined by LC-MS/MS. The involvement of Compound A as a substrate of OATP1B1 and OATP1B3 was assessed in the uptake transporter substrate assays at 4 concentrations (0.1, 0.5, 1 and 5 μM). Compound A in cell lysates was determined by LC-MS/MS.

Caco-2 cell monolayers = experiment: Bidirectional permeability in Caco-2 cell monolayers; conditions: 1% of BSA, 120 min incubation
Description: as §1, §2

OATP1B1 = target: T2, OATP1B1 (Homo sapiens, UniProt Q9Y6L6); experiment: OATP1B1 uptake transporter substrate assay; design: expressed in transfected cells; conditions: OATP1B1-expressing vs control cell
T2 sequence (Q9Y6L6 1-691): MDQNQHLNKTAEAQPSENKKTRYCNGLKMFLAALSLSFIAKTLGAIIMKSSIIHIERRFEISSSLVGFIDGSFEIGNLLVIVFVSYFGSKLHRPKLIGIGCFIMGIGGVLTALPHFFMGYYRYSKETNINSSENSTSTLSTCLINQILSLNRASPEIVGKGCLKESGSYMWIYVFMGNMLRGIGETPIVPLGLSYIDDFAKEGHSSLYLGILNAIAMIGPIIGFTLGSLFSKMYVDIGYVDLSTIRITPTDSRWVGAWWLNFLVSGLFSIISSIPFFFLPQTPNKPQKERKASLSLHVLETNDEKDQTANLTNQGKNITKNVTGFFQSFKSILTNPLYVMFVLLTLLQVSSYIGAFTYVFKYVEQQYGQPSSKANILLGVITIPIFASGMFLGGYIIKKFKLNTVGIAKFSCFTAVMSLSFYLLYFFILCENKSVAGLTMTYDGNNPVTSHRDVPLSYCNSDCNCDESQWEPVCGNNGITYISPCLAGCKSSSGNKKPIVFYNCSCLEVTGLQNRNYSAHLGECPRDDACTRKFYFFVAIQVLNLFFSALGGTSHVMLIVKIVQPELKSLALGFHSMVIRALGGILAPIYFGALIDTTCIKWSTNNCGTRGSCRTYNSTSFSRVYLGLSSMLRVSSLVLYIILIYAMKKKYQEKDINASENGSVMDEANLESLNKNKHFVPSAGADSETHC
Description: as §1, §2

OAT3 = target: T3, OAT3 (Homo sapiens, UniProt Q8TCC7); experiment: OAT3 uptake transporter inhibition in MDCKII or HEK293 cells; conditions: substrate E3S (1 μM)
T3 construct: expressed in transfected cells; host or cells: MDCKII or HEK293
Description: In addition, the inhibition potential against efflux transporters (P-glycoprotein (Pgp) and breast cancer resistance protein (BCRP)) and uptake transporters (MATE1, MATE2-K, OATP1B1, OATP1B3, OAT1, OAT3, and OCT2) was assessed using single transporter over-expressed cell monolayers (MDCK II or HEK293) or inside-out vesicles.
The potential of Compound A to inhibit Pgp or BCRP was tested for bidirectional transport of the probe substrates in Pgp or BCRP-expressed MDCKII and control monolayers at Compound A concentrations of 0.07-5 μM. Pgp and BCR inhibition were tested in inside-out membrane vesicles prepared from HEK293 overexpressing human Pgp and BCR at concentrations of 0.01-9 μM Compound A in the presence of 4 mM MgATP or MgAMP.

[1] = Metabolite profiling using human plasma, HLM and human hepatocytes; conditions: human plasma
Description: Metabolite profiling was conducted in incubations of Compound A (2 and 10 μM) with HLM (up to 60 min), human hepatocyte suspension (up to 240 min) and human plasma (up to 360 min). In addition, Compound A (2 μM) was incubated with recombinant human CYP enzymes CYP1A2, CYP2A6, CYP2B6, CYP2C8, CYP2C9, CYP2C19, CYP2D6, CYP2E1, CYP3A4 and CYP3A5.

T3 sequence (Q8TCC7 whole entry): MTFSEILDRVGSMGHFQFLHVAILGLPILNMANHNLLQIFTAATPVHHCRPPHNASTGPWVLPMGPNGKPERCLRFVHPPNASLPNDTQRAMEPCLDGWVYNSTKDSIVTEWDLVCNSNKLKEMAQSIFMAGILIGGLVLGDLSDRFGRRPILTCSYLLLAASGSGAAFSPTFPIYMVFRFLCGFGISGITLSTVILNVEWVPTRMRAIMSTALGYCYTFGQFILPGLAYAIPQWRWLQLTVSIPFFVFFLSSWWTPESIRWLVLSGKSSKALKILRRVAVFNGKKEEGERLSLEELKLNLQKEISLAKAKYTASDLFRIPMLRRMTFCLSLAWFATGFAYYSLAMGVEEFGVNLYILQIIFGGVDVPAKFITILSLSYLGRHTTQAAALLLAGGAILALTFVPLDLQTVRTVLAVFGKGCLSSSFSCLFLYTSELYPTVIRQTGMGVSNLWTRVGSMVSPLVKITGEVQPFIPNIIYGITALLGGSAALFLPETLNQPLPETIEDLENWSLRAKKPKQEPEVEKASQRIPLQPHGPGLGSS

SMILES: COc1cc(O[C@H]2C(C)(C)[C@H](NC(=O)c3ccc(N4CCC(CN5CCN(c6ccc(C(=O)N[C@H]7CCC(=O)NC7=O)c(F)c6)CC5)CC4)cc3)C2(C)C)ccc1C#N [Compound A, 4-(4-((1-(4-(((1R,3R)-3-(4-cyano-3-methoxyphenoxy)-2,2,4,4-tetramethylcyclobutyl)carbamoyl)phenyl)piperidin-4-yl)methyl)piperazin-1-yl)-N—((S)-2,6-dioxopiperidin-3-yl)-2-fluorobenzamide]
- Fold accumulation, OATP1B3 (OATP1B3): < 2 fold
- Substrate for OATP1B3 (OATP1B3; 0.1, 0.5, 1 and 5 μM): not a substrate
- Permeability in Caco-2 cell monolayers (Caco-2 cell monolayers): low permeability
- Fold accumulation, OATP1B1 (OATP1B1): < 2 fold
- Substrate for OATP1B1 (OATP1B1; 0.1, 0.5, 1 and 5 μM): not a substrate
- IC50 (OAT3): > 3.75 µM
- Major metabolic pathway [1]: hydrolysis (M825/1)

Source: patent publication US20250009737A1, “COMPOUNDS AND METHODS FOR THE TARGETED DEGRADATION OF ANDROGEN RECEPTOR” (Arvinas Operations, Inc., priority 2023, published 2025)
